Laboratory results: patent publication US4382030A, “2-Acylaminomethyl-1,4-benzodiazepine derivatives and their salts, pharmaceutical compositions thereof and process for their preparation” (Kali-Chemie Pharma GmbH, priority 1979, dated 1983)

What was measured:
Format in all cases: in vivo
[1] = tested on: mice (tail flick, heat beam pain reaction); test: Tail flick Test in Mice; details: sc, 0.5 h; mouse, s.c.; 30 minutes after administration; >75% increase of reaction time in 50% of animals
Description: (§1) This analgesic activity has been evaluated in two pharmacological standard methods, the tail flick test in mice and the arthritis pain test in rats.
3. Tail flick Test in Mice.
This test is carried out according to the method described by D'Amour and Smith (1941), yet fed male and female mice having a body weight of 16 to 25 g are used instead of rats. Thirty minutes prior to treatment with the test compound, each mouse is placed separately in a cylindrical container in such a manner that it cannot turn itself or move forward. Its tail is positioned in a narrow groove projecting out of the container. A certain point of the tail of each animal (about 35 mm beyond the root of the tail) is subjected to the heat beam of a lamp of known strength and temperature which is positioned directly under the tail. The number of seconds which pass before the mouse moves its tail out of the light beam is determined twice, once 30 minutes and once 15 minutes prior to subcutaneous administration of the test compound (10 mg/kg). Mice which show a reaction time differing more than 25% are eliminated from the test. The reaction time is again determined 15 minutes and 30 minutes after the treatment and an increase of the reaction period of more than 75% of the average values prior to treatment in the same animal is considered as showing an analgesic effect. The ED50 (95% reliability) of each test compound 30 minutes after administration is evaluated according to the method of Litchfield and Wilcoxon (1949). The dose which increases the reaction time as compared to the reaction time prior to treatment for more than 75% in 50% of the animals is considered as ED50.

[2] = tested on: rats (secondary arthritis pain, mycobacterium smegmae); test: Arthritis Pain Test in Rats; details: po, rat, p.o., 3 hours after administration, protection in 50% of treated animals
Description: as §1
2. Arthritis Pain Test in Rats.
Male rats having a weight of from 160 to 180 g are anesthetized by small i.p. injection of 20 mg/kg of sodium pentobarbital and 0.1 ml of a suspension of mycobacterium smegmae (SI 043) in liquid paraffin (0.6 mg mycobacterium/0.1 ml of oil) are injected intracutaneously into the left rear paw. Fourteen days later when a marked secondary arthritis has developed in particular in the right rear paw, the effect of the test compound is evaluated. A control-reading is taken 30 minutes prior to administration of the test compound by bending the foot joint of the right rear paw three times and counting the number of squeakings. […] Three hours after oral administration of the test compound the bending of the joint is repeated. Animals which squeak only once or not at all are considered to be protected against pain. Between about 9 and 20 rats are used per dose and the ED50 (95% reliability) is determined according to the method of Litchfield and Wilcoxon (1949). The dose which provides protection in 50% of the treated animals is taken as ED50.

male mice = test: Determination of the Minimal Toxic Dose (oral, mice); details: mouse, p.o.; observed 3 h, symptoms and deaths over 24 h
Description: 1. Determination of the Minimal Toxic Dose.
Maximum doses of 300 mg/kg of the test compound are administered orally to three male mice having a weight of 20-25 g and toxicity symptoms are carefully observed for a period of three hours. Furthermore, over a period of 24 hours from the administration all symptoms and deaths are registered. Side-symptoms are also observed and registered. Depending on their water solubility, the test compounds are administered either in form of aqueous solutions or in form of suspensions without the use of solvents. In order to maintain a stable suspension of the test compound, one drop of Tween-80 can be added and the mixture can be mechanically homogenized. In the case of compounds where deaths or toxic symptoms have been observed, additional mice are treated with decreasing doses until a dose is reached at which no toxic symptoms occur. The lowest dose which causes toxic symptoms is considered the minimal toxic dose.

Row | SMILES | ED50 [1] [mg/kg] | ED50 [2] [mg/kg] | MDL (minimal toxic dose) (male mice) [mg/kg]
1 | CN1c2ccccc2C(c2ccccc2)=NCC1CNC(=O)c1cccs1 (stereo not drawn) [Compound 1, 1-methyl-2-[(thiophene-2-carbonyl)-aminomethyl]-5-phenyl-1H-2,3-dihydro-1,4-benzodiazepine] | 2.8 | 13 | > 300
2 | CN1c2ccccc2C(c2ccccc2)=NCC1CNC(=O)c1ccco1 (stereo not drawn) [Compound 2, 1-methyl-2-[(furane-2-carbonyl)-aminomethyl]-5-phenyl-1H-2,3-dihydro-1,4-benzodiazepine] | 2.8 | 32 | > 300
3 | COc1ccc2c(c1)N(C)C(CNC(=O)c1cccs1)CN=C2c1ccccc1 (stereo not drawn) [Compound 3, 8-methoxy-1-methyl-2-[(thiophene-2-carbonyl)-aminomethyl]-5-phenyl-1H-2,3-dihydro-1,4-benzodiazepine] | 5.3 | 20 | > 200
4 | COc1ccc2c(c1)N(C)C(CNC(=O)c1ccco1)CN=C2c1ccccc1 (stereo not drawn) [Compound 4, 8-methoxy-1-methyl-2-[(furane-2-carbonyl)-aminomethyl]-5-phenyl-1H-2,3-dihydro-1,4-benzodiazepine] | 7 | 21 | > 200
5 | COc1ccc2c(c1)N(C)C(CNC(=O)c1ccsc1)CN=C2c1ccccc1 (stereo not drawn) [Compound 5, 8-methoxy-1-methyl-2-[(thiophene-3-carbonyl)-aminomethyl]-5-phenyl-1H-2,3-dihydro-1,4-benzodiazepine] | 2.4 | 15 | > 200
6 | COc1ccc2c(c1)N(C)C(CNC(=O)c1ccoc1)CN=C2c1ccccc1 (stereo not drawn) [Compound 6, 8-methoxy-1-methyl-2-[(furane-3-carbonyl)-aminomethyl]-5-phenyl-1H-2,3-dihydro-1,4-benzodiazepine] | 2.8 | 9 | > 50
7 | CN1c2ccccc2C(c2ccccc2)=NCC1CNC(=O)c1ccsc1 (stereo not drawn) [Compound 7, 1-methyl-2-[(thiophene-3-carbonyl)-aminomethyl]-5-phenyl-1H-2,3-dihydro-1,4-benzodiazepine] | 0.22 | 19 | > 200
8 | Cc1cc2c(cc1C)N(C)C(CNC(=O)c1ccoc1)CN=C2c1ccccc1 (stereo not drawn) [Compound 8, 1,7,8-trimethyl-2-[(furane-3-carbonyl)-aminomethyl]-5-phenyl-1H-2,3-dihydro-1,4-benzodiazepine] | 8 | 14 | > 200
9 | COc1ccc2c(c1)N(C)C(CNC(=O)c1ccc(C)s1)CN=C2c1ccccc1 (stereo not drawn) [Compound 9, 8-methoxy-1-methyl-2-[(5-methylthiophene-2-carbonyl)-aminomethyl]-5-phenyl-1H-2,3-dihydro-1,4-benzodiazepine] | 5.6 | 14 | > 200
10 | Cc1ccc2c(c1)C(c1ccccc1)=NCC(CNC(=O)c1ccsc1)N2C (stereo not drawn) [Compound 10, 1,7-dimethyl-2-[(thiophene-3-carbonyl)-aminomethyl]-5-phenyl-1H-2,3-dihydro-1,4-benzodiazepine] | 3.2 | 32 | > 300
11 | Cc1ccc2c(c1)C(c1ccccc1)=NCC(CNC(=O)c1ccoc1)N2C (stereo not drawn) [Compound 11, 1,7-dimethyl-2-[(furane-3-carbonyl)-aminomethyl]-5-phenyl-1H-2,3-dihydro-1,4-benzodiazepine] | 1.2 | 30 | > 300
12 | Cc1ccc(C(=O)NCC2CN=C(c3ccccc3)c3ccccc3N2C)s1 (stereo not drawn) [Compound 12, 1-methyl-2-[(5-methylthiophene-2-carbonyl)-aminomethyl]-5-phenyl-1H-2,3-dihydro-1,4-benzodiazepine] | 2.8 | 10 | > 300
13 | CCOc1ccc2c(c1)N(C)C(CNC(=O)c1ccoc1)CN=C2c1ccccc1 (stereo not drawn) [Compound 13, 8-ethoxy-1-methyl-2-[(furane-3-carbonyl)-aminomethyl]-5-phenyl-1H-2,3-dihydro-1,4-benzodiazepine] | 6 | 15 | > 200
14 | COc1cccc(C2=NCC(CNC(=O)c3ccco3)N(C)c3ccccc32)c1 (stereo not drawn) [Compound 14, 1-methyl-2-[(furane-2-carbonyl)-aminomethyl]-5-(3-methoxyphenyl)-1H-2,3-dihydro-1,4-benzodiazepine] | 1.6 | 32 | > 300
15 | COc1ccc2c(c1)C(c1ccccc1)=NCC(CNC(=O)c1ccoc1)N2C (stereo not drawn) [Compound 15, 7-methoxy-1-methyl-2-[(furane-3-carbonyl)-aminomethyl]-5-phenyl-1H-2,3-dihydro-1,4-benzodiazepine] | 8.5 | 32 | > 300
16 | COc1cccc(C2=NCC(CNC(=O)c3ccsc3)N(C)c3ccccc32)c1 (stereo not drawn) [Compound 16, 1-methyl-2-[(thiophene-3-carbonyl)-aminomethyl]-5-(3-methoxyphenyl)-1H-2,3-dihydro-1,4-benzodiazepine] | 0.5 | 32 | > 300
17 | CCN1c2ccccc2C(c2ccccc2)=NCC1CNC(=O)c1ccoc1 (stereo not drawn) [Compound 17, 1-ethyl-2-[(furane-3-carbonyl)-aminomethyl]-5-phenyl-1H-2,3-dihydro-1,4-benzodiazepine] | 2.6 | 22 | > 200
18 | CN1c2ccccc2C(c2ccccc2F)=NCC1CNC(=O)c1ccco1 (stereo not drawn) [Compound 18, 1-methyl-2-[(furane-2-carbonyl)-aminomethyl]-5-(2-fluorophenyl)-1H-2,3-dihydro-1,4-benzodiazepine] | 4.1 | 18 | > 300
19 | CN1c2ccccc2C(c2ccccc2F)=NCC1CNC(=O)c1ccoc1 (stereo not drawn) [Compound 19, 1-methyl-2-[(furane-3-carbonyl)-aminomethyl]-5-(2-fluorophenyl)-1H-2,3-dihydro-1,4-benzodiazepine] | 0.56 | 13 | > 300
20 | CN1c2ccccc2C(c2ccccc2F)=NCC1CNC(=O)c1ccsc1 (stereo not drawn) [Compound 20, 1-methyl-2-[(thiophene-3-carbonyl)-aminomethyl]-5-(2-fluorophenyl)-1H-2,3-dihydro-1,4-benzodiazepine] | 1.1 | 18 | > 300
21 | CN1c2ccccc2C(c2ccccc2F)=NCC1CNC(=O)c1cccs1 (stereo not drawn) [Compound 21, 1-methyl-2-[(thiophene-2-carbonyl)-aminomethyl]-5-(2-fluorophenyl)-1H-2,3-dihydro-1,4-benzodiazepine] | 6.2 | 13 | > 300
